{"source": "patent US8314217B2", "about": "“Cross-linked glycopeptide-cephalosporin antibiotics” (priority 2003, dated 2012)", "key": {"[1]": {"test_system": "methicillin-susceptible Staphylococcus aureus (MSSA 13709) and methicillin-resistant Staphylococcus aureus (MRSA 33591)", "test": "In vivo efficacy in neutropenic mice (thigh infection)", "parameters": "species or system Male CD-1 mice", "settings": "iv, 24 h, read-out: ED50 (dose required to produce 50% of the maximum reduction in thigh titre)", "protocol": "Animals (Male CD-1 mice, 20-30 g) were acquired from Charles Rivers Laboratories (Gilroy, Calif.) and allowed access to food and water ad libitum. Neutropenia was induced via 200 mg/kg intraperitoneal (IP) injection of cyclophosphamide given four and two days prior to the inoculation of bacteria.\nThe organism used was either a susceptible or resistant strain of clinically relevant Gram-positive pathogens, such as methicillin-susceptible Staphylococcus aureus (MSSA 13709) and methicillin-resistant Staphylococcus aureus (MRSA 33591). The bacterial inoculum concentration was ˜10^6 CFU/mL. Animals were lightly anesthetized with isoflurane and […] of the bacterial inoculum was injected into the anterior thigh. One hour after the inoculation, animals were dosed intravenously with vehicle or the appropriate dose of the test compound. At 0 hours and 24 hours post-treatment, the animals were euthanized (CO2 asphyxiation) and the anterior and posterior thigh collected aseptically. The thigh was placed into 10 mL sterile saline and homogenized. Dilutions of the homogenate were plated onto triptic soy agar plates which were incubated overnight. The number of bacterial colonies on a given plate was multiplied by the dilution factor, divided by the thigh weight (in grams) and expressed as log CFU/g. […]"}, "MRSA 33591 [2]": {"test_system": "MRSA 33591", "test": "Minimal inhibitory concentration (MIC), broth microdilution", "type": "cell-based, methicillin-resistant Staphylococcus aureus", "settings": "Staphylococcus aureus, read-out: MIC MRSA 33591", "protocol": "(§1) Minimal inhibitory concentration (MICs) assays were performed using the broth microdilution method set forth in NCCLS guidelines (see, NCCLS. 2000. Methods for Dilution Antimicrobial Susceptibility Tests for Bacteria That Grow Aerobically; Approved Standard—Fifth Ed., Vol. 20, No. 2). Bacterial strains were obtained from the American Type Tissue Culture Collection (ATCC), Stanford University Hospital (SU), Kaiser Permanente Regional Laboratory in Berkeley (KPB), Massachusetts General Hospital (MGH), the Centers for Disease Control (CDC), the San Francisco Veterans' Administration Hospital (SFVA) or the University of California San Francisco Hospital (UCSF). Vancomycin-resistant enterococci were phenotyped as Van A or Van B based on their sensitivity to teicoplanin. Some vancomycin-resistant enterococci that had been genotyped as Van A, Van B, Van C1 or Van C2 were also obtained from the Mayo Clinic.\n(§2) In this assay, cryopreserved bacterial cultures of reference and clinical strains were streaked for isolation on appropriate agar medium (i.e., Trypticase Soy Agar, Trypticase Soy Agar with defibrinated sheep erythrocytes, Brain Heart Infusion Agar, Chocolate Agar). Following incubation to allow formation of colonies, these plates were sealed with Parafilm® and stored refrigerated for up to two weeks. […] The MIC was read visually as the lowest concentration well with no bacterial growth. […]"}, "MRSA 33591 [3]": {"test_system": "MRSA 33591", "test": "Time-kill assay", "type": "cell-based, methicillin-resistant Staphylococcus aureus", "settings": "MRSA 33591, in 24 hours", "protocol": "This time-kill assay is a method for measuring the rate of bactericidal activity of a test compound. […] A rapid time-kill is desirable to quickly prevent bacterial colonization and reduce host tissue damage.\nBacteria were diluted in prewarmed media in shake flasks and incubated with shaking (200 rpm, 35° C.). At 0, 1, 4, and 24 hours samples were withdrawn from the flasks and bacteria were enumerated by plate counting. Subsequent to the initial sampling, a compound to be assayed was added to the shake flask culture. Plate counts at these intervals previous to and following addition of the compound were expressed graphically in a time-kill curve."}, "MSSA 13709": {"test_system": "MSSA 13709", "test": "Minimal inhibitory concentration (MIC), broth microdilution", "type": "cell-based, methicillin-susceptible Staphylococcus aureus", "settings": "Staphylococcus aureus, read-out: MIC MSSA 13709", "protocol": "as §1, §2"}}, "data": [{"smiles": "CN[C@H](CC(C)C)C(=O)N[C@H]1C(=O)N[C@@H](CC(N)=O)C(=O)N[C@H]2C(=O)N[C@H]3C(=O)N[C@H](C(=O)N[C@H](C(=O)O)c4cc(O)cc(O)c4-c4cc3ccc4O)[C@H](O)c3ccc(c(Cl)c3)Oc3cc2cc(c3O[C@@H]2O[C@H](CO)[C@@H](O)[C@H](O)[C@H]2O[C@H]2C[C@](C)(N)[C@H](O)[C@H](C)O2)Oc2ccc(cc2Cl)[C@H]1O", "note": "[Vancomycin]", "values": [{"measurement": "ED50", "setting": "[1]", "value": 9, "unit": "mg/kg"}, {"measurement": "MIC", "setting": "MRSA 33591 [2]", "value": 2, "unit": "µg/mL"}, {"measurement": "bactericidal concentration (≧3 log decrease in bacterial cell numbers)", "setting": "MRSA 33591 [3]", "value": 4, "unit": "μg/mL"}, {"measurement": "MIC", "setting": "MSSA 13709", "value": 1, "unit": "µg/mL"}]}]}
